Data from patent US12091389B2, “Pyrazolylbenzene-1,3-diols for diseases associated with g protein-coupled receptor 18 and in combination with transient receptor potential vanilloid 1” (Temple University—Of The Commonwealth System of Higher …, priority 2020, dated 2024).

Target: TRPV1 (Homo sapiens, UniProt Q8NER1)
Assay: Calcium imaging (Fura-2 AM) in TRPV1-expressing HEK293 cells
Type: cell-based
Settings: compound alone, 5 μM

Chain of TRPV1 (Q8NER1 whole entry): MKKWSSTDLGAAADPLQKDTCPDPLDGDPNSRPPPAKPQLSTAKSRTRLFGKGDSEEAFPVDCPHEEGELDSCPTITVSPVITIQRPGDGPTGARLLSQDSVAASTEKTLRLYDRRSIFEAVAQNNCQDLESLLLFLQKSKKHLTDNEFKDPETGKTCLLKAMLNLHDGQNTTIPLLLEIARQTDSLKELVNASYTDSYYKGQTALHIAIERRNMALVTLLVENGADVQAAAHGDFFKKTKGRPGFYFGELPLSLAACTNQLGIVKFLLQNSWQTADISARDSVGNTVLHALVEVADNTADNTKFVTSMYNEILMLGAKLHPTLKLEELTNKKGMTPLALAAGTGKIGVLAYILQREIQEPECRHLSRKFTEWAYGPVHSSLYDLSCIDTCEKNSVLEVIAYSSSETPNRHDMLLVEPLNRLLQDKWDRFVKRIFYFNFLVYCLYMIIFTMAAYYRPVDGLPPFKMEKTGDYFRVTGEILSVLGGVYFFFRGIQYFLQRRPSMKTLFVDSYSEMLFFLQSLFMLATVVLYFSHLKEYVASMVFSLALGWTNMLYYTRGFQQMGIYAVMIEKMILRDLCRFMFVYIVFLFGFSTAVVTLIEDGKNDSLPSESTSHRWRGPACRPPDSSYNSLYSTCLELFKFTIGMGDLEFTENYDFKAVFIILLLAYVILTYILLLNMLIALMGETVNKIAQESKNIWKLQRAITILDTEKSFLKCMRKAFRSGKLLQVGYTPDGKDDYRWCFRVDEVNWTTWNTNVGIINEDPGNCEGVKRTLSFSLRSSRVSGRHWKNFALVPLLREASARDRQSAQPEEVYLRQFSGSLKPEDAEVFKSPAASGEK

## CCCCC/C=C\C/C=C\C/C=C\C/C=C\CCCC(=O)NCCO [Anandamide]
  Effect on intracellular calcium (Ca^2+) in TPRV1-expressing cells: increases intracellular calcium
